Test results reported in US10800791B2, “Triazole ACC inhibitors and uses thereof” (Gilead Apollo, LLC, priority 2015, dated 2020).
Values after ≈ are worked out from the molar mass of the structure shown. Read-outs that look alike come from different tables or passages of the source.

Assays:
Diplodia maydis (Dm) = assay: Growth inhibition assay of fungal pathogens, Dm; assay type: cell-based; conditions: Stenocarpella maydis, 48 h
Outline: (§1)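 Read-out: OD600 plus visual rating at 24 and 48 h, blank (media + 2% DMSO) subtracted. Percent inhibition was derived at 48 h versus the 2% DMSO control. Spores were grown in 17% V8 broth with compound at 50/10/2 or 2/0.4/0.08 ppm final.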

fungal (fACC2) = fungal (fACC2) (UniProt Q00955); conditions: read-out: fACC2 (in vitro ACC2 Inhibition Assay, IC50), ADP-Glo, 5 nM ACC2, 20 μM ATP, 20 μM acetyl-CoA
Septoria tritici (St) = assay: Growth inhibition assay of fungal pathogens, St; assay type: cell-based; conditions: Zymoseptoria tritici, 48 h
Outline: as §1

[1] = tested on: Fusarium moniliforme (Fm); assay: Growth inhibition assay of fungal pathogens, Fm; assay type: cell-based; conditions: for IC90: Fusarium verticillioides, 48 h, read-out: Concentration at 90% Inhibition Fm
Outline: as §1

[2] = tested on: Collectotrichum graminicola (Cg); assay: Growth inhibition assay of fungal pathogens, Cg; assay type: cell-based; conditions: 48 h
Outline: as §1

[3] = tested on: Fusarium virguliforme (Fv); assay: Growth inhibition assay of fungal pathogens, Fv; assay type: cell-based; conditions: 48 h
Outline: as §1

C. parapsilosis = assay: Antifungal Activity Assay (broth microtiter MIC), C. parapsilosis; assay type: cell-based, Candida parapsilosis; conditions: Lodderomyces parapsilosis, ATCC22019, 48 h
Outline: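 Colonies from 24 h Sabouraud dextrose agar plates (35° C) are suspended in RPMI 1640+MOPS and diluted to give 2.5×10^3 CFU/mL in the wells. Plates are set up per CLSI M27-A3. Visual MIC is recorded at 48 h.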

[4] = tested on: Phytophthora capsici (Pc); assay: Growth inhibition assay of fungal pathogens, Pc; assay type: cell-based; conditions: 48 h
Outline: as §1

human (hACC2) = human (hACC2) (Homo sapiens, UniProt O00763); assay: In vitro ACC inhibition assay (ADP-Glo), hACC2; assay type: biochemical; conditions: 5 nM ACC2, 20 μM ATP, 20 μM acetyl-CoA
Description: The detailed procedure is as follows. […] 10 μL ADP glo reagent was added. […] 20 μL kinase detection reagent was added.

Rhizoctonia solani (Rs) = assay: Growth inhibition assay of fungal pathogens, Rs; assay type: cell-based; conditions: 48 h
[5] = Fusarium moniliforme, growth inhibition at 48 hours vs 2% DMSO control
[6] = Diplodia maydis, growth inhibition at 48 hours vs 2% DMSO control, read-out: Concentration at 90% Inhibition Dm
[7] = Diplodia maydis, growth inhibition vs 2% DMSO control at 48 hours, read-out: Concentration at 90% Inhibition Dm
[8] = Septoria tritici, growth inhibition at 48 hours vs 2% DMSO control, read-out: Concentration at 90% Inhibition St
[9] = Septoria tritici, growth inhibition vs 2% DMSO control at 48 hours, read-out: Concentration at 90% Inhibition St
[10] = Fusarium moniliforme, growth inhibition vs 2% DMSO control at 48 hours
[11] = Collectotrichum graminicola, growth inhibition at 48 hours vs 2% DMSO control, read-out: Concentration at 90% Inhibition Cg
[12] = Collectotrichum graminicola, growth inhibition vs 2% DMSO control at 48 hours, read-out: Concentration at 90% Inhibition Cg
[13] = growth inhibition at 48 hours vs 2% DMSO control, read-out: Concentration at 90% Inhibition Fv
[14] = growth inhibition vs 2% DMSO control at 48 hours, read-out: Concentration at 90% Inhibition Fv
[15] = Table 3a, ATCC 22019, 3 replicates, MIC recorded at 48 h, read-out: MIC, C. parapsilosis ATCC 22019
[16] = Table 3b (additional results), ATCC 22019, 3 replicates, MIC recorded at 48 h, read-out: MIC, C. parapsilosis ATCC 22019
[17] = growth inhibition at 48 hours vs 2% DMSO control, read-out: Concentration at 90% Inhibition Pc
[18] = growth inhibition vs 2% DMSO control at 48 hours, read-out: Concentration at 90% Inhibition Pc
[19] = mycelial plugs, growth inhibition at 48 hours vs 2% DMSO control, read-out: Concentration at 90% Inhibition Rs
[20] = mycelial plugs, growth inhibition vs 2% DMSO control at 48 hours, read-out: Concentration at 90% Inhibition Rs

Chain of fungal (fACC2) (Q00955 whole entry): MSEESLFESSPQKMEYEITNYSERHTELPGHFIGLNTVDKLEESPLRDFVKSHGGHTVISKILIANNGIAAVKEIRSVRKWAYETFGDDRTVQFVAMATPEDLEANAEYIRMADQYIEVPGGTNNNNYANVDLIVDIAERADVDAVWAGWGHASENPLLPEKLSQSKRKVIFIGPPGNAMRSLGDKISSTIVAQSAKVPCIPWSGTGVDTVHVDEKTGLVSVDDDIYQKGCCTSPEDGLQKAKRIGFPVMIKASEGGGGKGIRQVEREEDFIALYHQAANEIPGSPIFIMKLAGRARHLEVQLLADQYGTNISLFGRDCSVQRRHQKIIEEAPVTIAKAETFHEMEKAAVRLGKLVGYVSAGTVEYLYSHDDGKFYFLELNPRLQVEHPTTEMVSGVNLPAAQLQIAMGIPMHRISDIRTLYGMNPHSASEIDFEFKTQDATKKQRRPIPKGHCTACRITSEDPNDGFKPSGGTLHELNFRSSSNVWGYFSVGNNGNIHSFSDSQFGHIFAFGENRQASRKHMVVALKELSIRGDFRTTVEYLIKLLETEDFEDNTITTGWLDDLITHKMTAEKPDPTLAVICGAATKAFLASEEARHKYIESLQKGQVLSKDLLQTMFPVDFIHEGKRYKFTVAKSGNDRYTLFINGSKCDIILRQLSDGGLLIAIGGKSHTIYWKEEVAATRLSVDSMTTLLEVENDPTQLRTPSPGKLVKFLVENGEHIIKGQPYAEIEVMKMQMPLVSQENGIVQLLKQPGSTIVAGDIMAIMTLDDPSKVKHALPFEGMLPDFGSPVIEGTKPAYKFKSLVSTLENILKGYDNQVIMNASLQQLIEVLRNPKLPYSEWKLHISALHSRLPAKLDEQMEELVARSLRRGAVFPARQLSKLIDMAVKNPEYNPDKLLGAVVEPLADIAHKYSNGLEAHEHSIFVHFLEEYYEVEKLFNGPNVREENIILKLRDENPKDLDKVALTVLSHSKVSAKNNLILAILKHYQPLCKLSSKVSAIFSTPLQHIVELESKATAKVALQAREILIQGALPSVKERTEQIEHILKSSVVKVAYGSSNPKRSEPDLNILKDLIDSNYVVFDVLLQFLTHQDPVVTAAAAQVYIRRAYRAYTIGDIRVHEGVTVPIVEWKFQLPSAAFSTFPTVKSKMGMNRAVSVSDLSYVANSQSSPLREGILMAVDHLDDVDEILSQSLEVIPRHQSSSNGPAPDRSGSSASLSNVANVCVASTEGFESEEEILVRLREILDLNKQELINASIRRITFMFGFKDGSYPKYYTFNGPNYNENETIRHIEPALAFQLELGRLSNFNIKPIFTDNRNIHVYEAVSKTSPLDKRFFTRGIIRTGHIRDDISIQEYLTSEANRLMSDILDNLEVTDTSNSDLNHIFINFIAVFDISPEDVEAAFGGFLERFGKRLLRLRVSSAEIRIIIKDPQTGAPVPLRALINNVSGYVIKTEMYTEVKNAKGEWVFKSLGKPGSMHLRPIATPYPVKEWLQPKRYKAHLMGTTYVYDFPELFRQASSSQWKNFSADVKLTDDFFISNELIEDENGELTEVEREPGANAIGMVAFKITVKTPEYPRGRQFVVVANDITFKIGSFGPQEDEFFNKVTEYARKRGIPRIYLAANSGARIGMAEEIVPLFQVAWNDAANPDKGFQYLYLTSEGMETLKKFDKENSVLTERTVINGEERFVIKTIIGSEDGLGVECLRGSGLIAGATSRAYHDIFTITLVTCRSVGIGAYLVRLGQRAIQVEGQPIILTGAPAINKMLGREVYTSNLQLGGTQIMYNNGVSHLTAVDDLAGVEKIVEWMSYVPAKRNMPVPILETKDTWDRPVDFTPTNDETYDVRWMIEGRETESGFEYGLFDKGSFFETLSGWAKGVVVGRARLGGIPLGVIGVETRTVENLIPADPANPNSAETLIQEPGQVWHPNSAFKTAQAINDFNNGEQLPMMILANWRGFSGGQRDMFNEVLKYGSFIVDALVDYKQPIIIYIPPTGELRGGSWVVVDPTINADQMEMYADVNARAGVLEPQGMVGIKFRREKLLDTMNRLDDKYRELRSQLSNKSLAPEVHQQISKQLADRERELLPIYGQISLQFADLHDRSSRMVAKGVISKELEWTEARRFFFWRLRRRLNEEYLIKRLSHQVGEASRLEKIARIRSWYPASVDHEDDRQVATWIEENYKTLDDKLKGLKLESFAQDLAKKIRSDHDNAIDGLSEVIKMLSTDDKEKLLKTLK
Chain of human (hACC2) (O00763 whole entry): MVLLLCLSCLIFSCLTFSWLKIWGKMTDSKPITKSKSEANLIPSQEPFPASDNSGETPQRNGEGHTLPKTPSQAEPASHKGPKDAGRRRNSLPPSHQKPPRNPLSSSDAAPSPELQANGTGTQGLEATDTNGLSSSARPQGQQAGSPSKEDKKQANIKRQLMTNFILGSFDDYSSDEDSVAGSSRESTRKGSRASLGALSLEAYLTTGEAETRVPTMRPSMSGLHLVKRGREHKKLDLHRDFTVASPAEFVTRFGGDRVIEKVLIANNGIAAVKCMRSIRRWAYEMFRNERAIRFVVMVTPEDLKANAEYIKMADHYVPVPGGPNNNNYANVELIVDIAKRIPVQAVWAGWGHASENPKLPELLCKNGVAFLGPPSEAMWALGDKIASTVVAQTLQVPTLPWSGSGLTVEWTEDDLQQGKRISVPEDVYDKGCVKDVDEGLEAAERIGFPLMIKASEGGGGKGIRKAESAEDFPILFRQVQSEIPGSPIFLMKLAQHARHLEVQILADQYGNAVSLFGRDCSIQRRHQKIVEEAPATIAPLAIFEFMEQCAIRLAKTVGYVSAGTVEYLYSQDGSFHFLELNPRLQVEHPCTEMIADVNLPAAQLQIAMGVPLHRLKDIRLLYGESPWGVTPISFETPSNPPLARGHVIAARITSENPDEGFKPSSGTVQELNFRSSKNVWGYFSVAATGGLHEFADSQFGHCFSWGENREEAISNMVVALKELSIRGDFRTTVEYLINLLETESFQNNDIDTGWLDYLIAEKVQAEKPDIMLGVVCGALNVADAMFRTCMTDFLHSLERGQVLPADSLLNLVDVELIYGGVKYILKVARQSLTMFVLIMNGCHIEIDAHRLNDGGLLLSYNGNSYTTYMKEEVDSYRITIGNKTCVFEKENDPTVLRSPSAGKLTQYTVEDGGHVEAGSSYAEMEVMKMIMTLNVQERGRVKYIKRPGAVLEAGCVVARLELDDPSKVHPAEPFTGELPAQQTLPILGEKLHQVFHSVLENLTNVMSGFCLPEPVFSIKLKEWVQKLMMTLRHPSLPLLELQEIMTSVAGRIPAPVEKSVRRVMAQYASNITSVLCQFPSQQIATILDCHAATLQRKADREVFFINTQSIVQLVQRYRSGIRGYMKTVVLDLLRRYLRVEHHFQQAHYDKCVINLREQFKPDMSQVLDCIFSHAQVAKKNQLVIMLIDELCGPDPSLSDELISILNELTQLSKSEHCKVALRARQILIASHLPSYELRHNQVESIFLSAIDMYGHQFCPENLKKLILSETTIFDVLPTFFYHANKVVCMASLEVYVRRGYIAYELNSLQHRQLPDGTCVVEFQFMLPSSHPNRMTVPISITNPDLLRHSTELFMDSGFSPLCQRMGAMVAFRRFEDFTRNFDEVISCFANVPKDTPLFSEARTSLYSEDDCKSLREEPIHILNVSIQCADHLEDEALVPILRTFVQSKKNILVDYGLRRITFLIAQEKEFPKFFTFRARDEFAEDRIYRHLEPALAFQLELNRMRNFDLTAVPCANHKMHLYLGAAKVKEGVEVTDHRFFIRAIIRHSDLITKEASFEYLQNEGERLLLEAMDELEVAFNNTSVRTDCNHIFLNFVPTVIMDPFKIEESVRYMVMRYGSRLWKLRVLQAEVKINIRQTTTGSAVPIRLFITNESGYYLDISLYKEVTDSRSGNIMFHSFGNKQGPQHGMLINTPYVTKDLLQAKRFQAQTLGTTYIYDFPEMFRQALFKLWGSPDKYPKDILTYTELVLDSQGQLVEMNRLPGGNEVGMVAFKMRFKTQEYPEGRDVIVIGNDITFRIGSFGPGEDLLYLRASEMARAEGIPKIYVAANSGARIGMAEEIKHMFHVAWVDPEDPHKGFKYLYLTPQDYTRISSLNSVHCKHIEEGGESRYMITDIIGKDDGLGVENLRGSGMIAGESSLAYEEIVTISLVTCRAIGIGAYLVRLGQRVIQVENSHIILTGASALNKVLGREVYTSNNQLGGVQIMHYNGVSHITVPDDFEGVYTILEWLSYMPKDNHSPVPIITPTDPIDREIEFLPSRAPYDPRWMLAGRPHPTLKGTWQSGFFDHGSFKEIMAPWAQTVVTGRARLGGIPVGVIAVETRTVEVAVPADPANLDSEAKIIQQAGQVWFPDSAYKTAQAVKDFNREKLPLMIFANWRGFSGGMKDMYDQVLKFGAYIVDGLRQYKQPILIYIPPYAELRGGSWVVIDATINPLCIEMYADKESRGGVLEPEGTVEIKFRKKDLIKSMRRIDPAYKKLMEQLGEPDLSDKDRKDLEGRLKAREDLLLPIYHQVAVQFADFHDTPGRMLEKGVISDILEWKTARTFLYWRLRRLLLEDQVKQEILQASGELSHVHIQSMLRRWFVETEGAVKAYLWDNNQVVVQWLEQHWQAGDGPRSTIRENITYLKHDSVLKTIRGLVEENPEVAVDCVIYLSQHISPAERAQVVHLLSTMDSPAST

With `Cc1c(-n2nccn2)sc2c1c(=O)n(C(C)(C)C(=O)NC(C)C)c(=O)n2C[C@H](OC(C)C)c1cc(F)ccc1OCC#N` [Compound I-56, (R)-2-(1-(2-(2-(cyanomethoxy)-5-fluorophenyl)-2-isopropoxyethyl)-5-methyl-2,4-dioxo-6-(2H-1,2,3-triazol-2-yl)-1,4-dihydrothieno[2,3-d]pyrimidin-3(2H)-yl)-N-isopropyl-2-methylpropanamide] the IC90 (Diplodia maydis (Dm); read-out: Concentration at 90% Inhibition Dm, Diplodia maydis, growth inhibition at 48 hours vs 2% DMSO control) was 0.4 µg/mL (≈ 0.654 µM), the IC90 (Diplodia maydis (Dm); read-out: Concentration at 90% Inhibition Dm, Diplodia maydis, growth inhibition vs 2% DMSO control at 48 hours) was 0.4 µg/mL (≈ 0.654 µM) and the IC50 (fungal (fACC2); Table 2a) was 1 to 5 nM. For the same compound, the IC50 (fungal (fACC2); Table 2b, additional results) was 1 to 5 nM, the IC90 (Septoria tritici (St); read-out: Concentration at 90% Inhibition St, Septoria tritici, growth inhibition at 48 hours vs 2% DMSO control) was 10 µg/mL (≈ 16.3 µM) and the IC90 (Septoria tritici (St); read-out: Concentration at 90% Inhibition St, Septoria tritici, growth inhibition vs 2% DMSO control at 48 hours) was > 50 µg/mL. The “Concentration at 90% Inhibition Fm” value [1, 5] was “AA (compound concentration of 0.08 ppm at 90% inhibition of fungal pathogens)”, the IC90 [1] was 0.08 µg/mL (≈ 0.131 µM) and the IC90 ([2]; read-out: Concentration at 90% Inhibition Cg, Collectotrichum graminicola, growth inhibition at 48 hours vs 2% DMSO control) was 2 µg/mL (≈ 3.27 µM). For the same compound, the IC90 ([2]; read-out: Concentration at 90% Inhibition Cg, Collectotrichum graminicola, growth inhibition vs 2% DMSO control at 48 hours) was 2 µg/mL (≈ 3.27 µM), the IC90 ([3]; read-out: Concentration at 90% Inhibition Fv, Fusarium virguliforme, growth inhibition at 48 hours vs 2% DMSO control) was 0.08 µg/mL (≈ 0.131 µM) and the IC90 ([3]; read-out: Concentration at 90% Inhibition Fv, Fusarium virguliforme, growth inhibition vs 2% DMSO control at 48 hours) was 0.08 µg/mL (≈ 0.131 µM). The MIC (C. parapsilosis; read-out: MIC, C. parapsilosis ATCC 22019, Table 3a, 3 replicates, MIC recorded at 48 h) was 0.25 to 1 µg/mL (≈ 0.409 to 1.63 µM), the MIC (C. parapsilosis; read-out: MIC, C. parapsilosis ATCC 22019, Table 3b (additional results), 3 replicates, MIC recorded at 48 h) was 1.01 to 2 µg/mL (≈ 1.65 to 3.27 µM) and the IC90 ([4]; read-out: Concentration at 90% Inhibition Pc, Phytophthora capsici, growth inhibition at 48 hours vs 2% DMSO control) was > 50 µg/mL. The IC90 ([4]; read-out: Concentration at 90% Inhibition Pc, Phytophthora capsici, growth inhibition vs 2% DMSO control at 48 hours) was > 50 µg/mL, the IC50 (human (hACC2); Table 2a) was 10 to 40 nM and the IC50 (human (hACC2); Table 2b, additional results) was 10 to 40 nM. For the same compound, the IC90 (Rhizoctonia solani (Rs); read-out: Concentration at 90% Inhibition Rs, Rhizoctonia solani, mycelial plugs, growth inhibition at 48 hours vs 2% DMSO control) was 2 µg/mL (≈ 3.27 µM) and the IC90 (Rhizoctonia solani (Rs); read-out: Concentration at 90% Inhibition Rs, Rhizoctonia solani, mycelial plugs, growth inhibition vs 2% DMSO control at 48 hours) was 2 µg/mL (≈ 3.27 µM).

`COc1ccc(F)cc1[C@H](Cn1c(=O)n(C(C)(C)C(=O)N2CC=CC2)c(=O)c2c(C)c(-n3nccn3)sc21)OC1CCOCC1` [Compound I-62, (R)-3-(1-(2,5-dihydro-1H-pyrrol-1-yl)-2-methyl-1-oxopro-pan-2-yl)-1-(2-(5-fluoro-2-methoxyphenyl)-2-((tetrahydro-2H-pyran-4-yl)oxy)ethyl)-5-methyl-6-(2H-1,2,3-triazol-2-yl)thieno[2,3-d]pyrimidine-2,4(1H,3H)-dione] was tested, and the IC90 (Diplodia maydis (Dm); [6]) was 0.4 µg/mL (≈ 0.626 µM), the IC90 (Diplodia maydis (Dm); [7]) was 0.4 µg/mL (≈ 0.626 µM) and the IC50 (fungal (fACC2); Table 2a) was 1 to 5 nM. The IC50 (fungal (fACC2); Table 2b, additional results) was 1 to 5 nM, the IC90 (Septoria tritici (St); [8]) was > 50 µg/mL and the IC90 (Septoria tritici (St); [9]) was > 50 µg/mL. For the same compound, the IC90 [1, 5] was 0.08 µg/mL (≈ 0.125 µM), the IC90 [1, 10] was 0.08 µg/mL (≈ 0.125 µM) and the IC90 [2, 11] was 0.4 µg/mL (≈ 0.626 µM). For the same compound, the IC90 [2, 12] was 0.4 µg/mL (≈ 0.626 µM), the IC90 [3, 13] was 0.4 µg/mL (≈ 0.626 µM) and the IC90 [3, 14] was 0.4 µg/mL (≈ 0.626 µM). For the same compound, the MIC (C. parapsilosis; [15]) was 0.25 to 1 µg/mL (≈ 0.391 to 1.57 µM), the MIC (C. parapsilosis; [16]) was 1.01 to 2 µg/mL (≈ 1.58 to 3.13 µM) and the IC90 [4, 17] was > 50 µg/mL. For the same compound, the IC90 [4, 18] was > 50 µg/mL, the IC50 (human (hACC2); Table 2a) was 1 to 5 nM and the IC50 (human (hACC2); Table 2b, additional results) was 1 to 5 nM. The IC90 (Rhizoctonia solani (Rs); [19]) was 0.08 µg/mL (≈ 0.125 µM) and the IC90 (Rhizoctonia solani (Rs); [20]) was 0.08 µg/mL (≈ 0.125 µM).

`COc1ccc(F)cc1[C@H](Cn1c(=O)n(C(C)(C)C(=O)N2CC=CC2)c(=O)c2c(C)c(-n3nccn3)sc21)OC[C@@H](C)O` [Compound I-63, 3-(1-(2,5-dihydro-1H-pyrrol-1-yl)-2-methyl-1-oxopropan-2-yl)-1-((R)-2-(5-fluoro-2-methoxyphenyl)-2-((R)-2-hydroxypropoxy)ethyl)-5-methyl-6-(2H-1,2,3-triazol-2-yl)thieno[2,3-d]pyrimidine-2,4(1H,3H)-dione] showed an IC90 (Diplodia maydis (Dm); [6]) of 2 µg/mL (≈ 3.26 µM), an IC90 (Diplodia maydis (Dm); [7]) of 2 µg/mL (≈ 3.26 µM) and an IC50 (fungal (fACC2); Table 2a) of 0.4 to 1 nM. The IC50 (fungal (fACC2); Table 2b, additional results) was 0.3 to 1 nM, the IC90 (Septoria tritici (St); [8]) was > 50 µg/mL and the IC90 (Septoria tritici (St); [9]) was > 50 µg/mL. The IC90 [1, 5] was 0.08 µg/mL (≈ 0.131 µM), the IC90 [1, 10] was 0.08 µg/mL (≈ 0.131 µM) and the IC90 [2, 11] was 0.4 µg/mL (≈ 0.653 µM). The IC90 [2, 12] was 0.4 µg/mL (≈ 0.653 µM), the IC90 [3, 13] was 0.4 µg/mL (≈ 0.653 µM) and the IC90 [3, 14] was 0.4 µg/mL (≈ 0.653 µM). The MIC (C. parapsilosis; [15]) was 1.1 to 2 µg/mL (≈ 1.8 to 3.26 µM), the MIC (C. parapsilosis; [16]) was 2.01 to 4 µg/mL (≈ 3.28 to 6.53 µM) and the IC90 [4, 17] was > 50 µg/mL. For the same compound, the IC90 [4, 18] was > 50 µg/mL, the IC50 (human (hACC2); Table 2a) was 5 to 10 nM and the IC50 (human (hACC2); Table 2b, additional results) was 5 to 10 nM. The IC90 (Rhizoctonia solani (Rs); [19]) was 0.4 µg/mL (≈ 0.653 µM) and the IC90 (Rhizoctonia solani (Rs); [20]) was 0.4 µg/mL (≈ 0.653 µM).
